Assay results reported in PubChem BioAssay (NCI).
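Step 1: Grow cells in 96-well plates. Step 2: Expose to compound for 48 hours at 5 concentrations. Step 3: Interpolate endpoints linearly; if unreached, use highest concentration. Abbreviation: GI50, concentration required for 50% inhibition of growth. TGI: concentration producing complete growth inhibition.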

Legend:
Assay in all cases: inhibition of tumour cell growth, NCI panel, 48 h
786-0 renal = test system: 786-0 renal
A549 NSCLC = test system: A549 NSCLC
ACHN renal = test system: ACHN renal
BT-549 breast = test system: BT-549 breast
CAKI-1 renal = test system: CAKI-1 renal
COLO 205 colon = test system: COLO 205 colon
DU-145 prostate = test system: DU-145 prostate
EKVX NSCLC = test system: EKVX NSCLC
HCT-116 colon = test system: HCT-116 colon
HCT-15 colon = test system: HCT-15 colon
HL-60(TB) leukemia = test system: HL-60(TB) leukemia
HOP-62 NSCLC = test system: HOP-62 NSCLC
HOP-92 NSCLC = test system: HOP-92 NSCLC
HS 578T breast = test system: HS 578T breast
HT29 colon = test system: HT29 colon
K-562 leukemia = test system: K-562 leukemia
KM12 colon = test system: KM12 colon
M14 melanoma = test system: M14 melanoma
MALME-3M melanoma = test system: MALME-3M melanoma
MCF7 breast = test system: MCF7 breast
MDA-MB-231 breast = test system: MDA-MB-231 breast
MDA-MB-435 = test system: MDA-MB-435
MOLT-4 leukemia = test system: MOLT-4 leukemia
NCI-H226 lung = test system: NCI-H226 lung
NCI-H23 lung = test system: NCI-H23 lung
NCI-H460 lung = test system: NCI-H460 lung
NCI/ADR-RES ovarian = test system: NCI/ADR-RES ovarian
OVCAR-3 ovarian = test system: OVCAR-3 ovarian
OVCAR-4 ovarian = test system: OVCAR-4 ovarian
OVCAR-5 ovarian = test system: OVCAR-5 ovarian
OVCAR-8 ovarian = test system: OVCAR-8 ovarian
PC-3 prostate = test system: PC-3 prostate
RXF 393 renal = test system: RXF 393 renal
SF-268 CNS = test system: SF-268 CNS
SF-295 CNS = test system: SF-295 CNS
SF-539 CNS = test system: SF-539 CNS
SK-MEL-28 melanoma = test system: SK-MEL-28 melanoma
SK-MEL-5 melanoma = test system: SK-MEL-5 melanoma
SK-OV-3 ovarian = test system: SK-OV-3 ovarian
SN12C renal = test system: SN12C renal
SNB-19 CNS = test system: SNB-19 CNS
SNB-75 CNS = test system: SNB-75 CNS
SR leukemia = test system: SR leukemia
SW-620 colon = test system: SW-620 colon
T-47D breast = test system: T-47D breast
TK-10 renal = test system: TK-10 renal
U251 CNS = test system: U251 CNS
UACC-257 melanoma = test system: UACC-257 melanoma
UACC-62 melanoma = test system: UACC-62 melanoma
A498 renal = test system: A498 renal
CCRF-CEM leukemia = test system: CCRF-CEM leukemia
HCC-2998 colon = test system: HCC-2998 colon
IGROV1 ovarian = test system: IGROV1 ovarian
LOX IMVI melanoma = test system: LOX IMVI melanoma
NCI-H522 lung = test system: NCI-H522 lung
RPMI-8226 leukemia = test system: RPMI-8226 leukemia
SK-MEL-2 melanoma = test system: SK-MEL-2 melanoma
UO-31 renal = test system: UO-31 renal

Cc1cc(NC(=S)SCc2ccc(F)cc2)c([N+](=O)[O-])cc1C
TGI (786-0 renal): > 100 µM
TGI (A549 NSCLC): > 100 µM
TGI (ACHN renal): > 100 µM
TGI (BT-549 breast): 59.1 µM
TGI (CAKI-1 renal): > 100 µM
TGI (COLO 205 colon): 37.2 µM
TGI (DU-145 prostate): > 100 µM
TGI (EKVX NSCLC): 91.3 µM
TGI (HCT-116 colon): > 100 µM
TGI (HCT-15 colon): 46.4 µM
TGI (HL-60(TB) leukemia): 45.4 µM
TGI (HOP-62 NSCLC): 68.1 µM
TGI (HOP-92 NSCLC): 68 µM
TGI (HS 578T breast): 46.6 µM
TGI (HT29 colon): 34.6 µM
TGI (K-562 leukemia): > 100 µM
TGI (KM12 colon): 44.6 µM
TGI (M14 melanoma): > 100 µM
TGI (MALME-3M melanoma): 77.7 µM
TGI (MCF7 breast): > 100 µM
TGI (MDA-MB-231 breast): 34.6 µM
TGI (MDA-MB-435): 73.2 µM
TGI (MOLT-4 leukemia): 16.9 µM
TGI (NCI-H226 lung): 38.7 µM
TGI (NCI-H23 lung): 99.4 µM
TGI (NCI-H460 lung): > 100 µM
TGI (NCI/ADR-RES ovarian): 62.2 µM
TGI (OVCAR-3 ovarian): 54.6 µM
TGI (OVCAR-4 ovarian): > 100 µM
TGI (OVCAR-5 ovarian): 54.7 µM
TGI (OVCAR-8 ovarian): 38.6 µM
TGI (PC-3 prostate): > 100 µM
TGI (RXF 393 renal): 82.9 µM
TGI (SF-268 CNS): > 100 µM
TGI (SF-295 CNS): > 100 µM
TGI (SF-539 CNS): 53.2 µM
TGI (SK-MEL-28 melanoma): > 100 µM
TGI (SK-MEL-5 melanoma): 26 µM
TGI (SK-OV-3 ovarian): > 100 µM
TGI (SN12C renal): 48.4 µM
TGI (SNB-19 CNS): 77.1 µM
TGI (SNB-75 CNS): > 100 µM
TGI (SR leukemia): 43.9 µM
TGI (SW-620 colon): > 100 µM
TGI (T-47D breast): > 100 µM
TGI (TK-10 renal): 65.4 µM
TGI (U251 CNS): 57.5 µM
TGI (UACC-257 melanoma): 53.6 µM
TGI (UACC-62 melanoma): 31.3 µM

O=S(=O)(c1ccc(NC(=S)NC23CC4CC(CC(C4)C2)C3)cc1)N1CCCCC1
GI50 (786-0 renal): 4.14 µM
TGI (786-0 renal): > 100 µM
GI50 (A498 renal): 2040 nM
TGI (A498 renal): 7.79 µM
GI50 (A549 NSCLC): 3.07 µM
TGI (A549 NSCLC): > 100 µM
GI50 (ACHN renal): 3.12 µM
TGI (ACHN renal): > 100 µM
GI50 (BT-549 breast): 3000 nM
TGI (BT-549 breast): 9.4 µM
GI50 (CAKI-1 renal): 3.06 µM
TGI (CAKI-1 renal): > 100 µM
GI50 (CCRF-CEM leukemia): 3.13 µM
TGI (CCRF-CEM leukemia): > 100 µM
GI50 (COLO 205 colon): 1820 nM
TGI (COLO 205 colon): 3.22 µM
GI50 (DU-145 prostate): 4.09 µM
TGI (DU-145 prostate): > 100 µM
GI50 (HCC-2998 colon): 3.29 µM
TGI (HCC-2998 colon): 19.9 µM
GI50 (HCT-116 colon): 3.34 µM
TGI (HCT-116 colon): > 100 µM
GI50 (HCT-15 colon): 3.22 µM
TGI (HCT-15 colon): > 100 µM
GI50 (HL-60(TB) leukemia): 2650 nM
TGI (HL-60(TB) leukemia): 6.24 µM
GI50 (HOP-62 NSCLC): 3.67 µM
TGI (HOP-62 NSCLC): > 100 µM
GI50 (HOP-92 NSCLC): 1630 nM
TGI (HOP-92 NSCLC): 5 µM
GI50 (HS 578T breast): 4.87 µM
TGI (HS 578T breast): > 100 µM
GI50 (HT29 colon): 2490 nM
TGI (HT29 colon): 5.84 µM
GI50 (IGROV1 ovarian): 4.63 µM
TGI (IGROV1 ovarian): > 100 µM
GI50 (K-562 leukemia): 3.6 µM
TGI (K-562 leukemia): > 100 µM
GI50 (KM12 colon): 3.65 µM
TGI (KM12 colon): 42.2 µM
GI50 (LOX IMVI melanoma): 3.71 µM
TGI (LOX IMVI melanoma): > 100 µM
GI50 (M14 melanoma): 3.36 µM
TGI (M14 melanoma): 22.7 µM
GI50 (MALME-3M melanoma): 2760 nM
TGI (MALME-3M melanoma): 8.3 µM
GI50 (MCF7 breast): 3.18 µM
TGI (MCF7 breast): > 100 µM
GI50 (MDA-MB-231 breast): 2410 nM
TGI (MDA-MB-231 breast): 5.6 µM
GI50 (MDA-MB-435): 3.49 µM
TGI (MDA-MB-435): > 100 µM
GI50 (MOLT-4 leukemia): 3.24 µM
TGI (MOLT-4 leukemia): 11.4 µM
GI50 (NCI-H226 lung): 4.05 µM
TGI (NCI-H226 lung): > 100 µM
GI50 (NCI-H23 lung): 3.5 µM
TGI (NCI-H23 lung): > 100 µM
GI50 (NCI-H460 lung): 3.35 µM
TGI (NCI-H460 lung): > 100 µM
GI50 (NCI-H522 lung): 2700 nM
TGI (NCI-H522 lung): 6.62 µM
GI50 (NCI/ADR-RES ovarian): 3.46 µM
TGI (NCI/ADR-RES ovarian): > 100 µM
GI50 (OVCAR-3 ovarian): 3.51 µM
TGI (OVCAR-3 ovarian): 21.1 µM
GI50 (OVCAR-4 ovarian): 4.01 µM
TGI (OVCAR-4 ovarian): > 100 µM
GI50 (OVCAR-5 ovarian): 3.53 µM
TGI (OVCAR-5 ovarian): > 100 µM
GI50 (OVCAR-8 ovarian): 3.22 µM
TGI (OVCAR-8 ovarian): > 100 µM
GI50 (PC-3 prostate): 2550 nM
TGI (PC-3 prostate): 8.94 µM
GI50 (RPMI-8226 leukemia): 2150 nM
TGI (RPMI-8226 leukemia): 5.86 µM
GI50 (RXF 393 renal): 2370 nM
TGI (RXF 393 renal): 6.6 µM
GI50 (SF-268 CNS): 4.12 µM
TGI (SF-268 CNS): > 100 µM
GI50 (SF-539 CNS): 4.19 µM
TGI (SF-539 CNS): > 100 µM
GI50 (SK-MEL-2 melanoma): 3.29 µM
TGI (SK-MEL-2 melanoma): 7.39 µM
GI50 (SK-MEL-28 melanoma): 5.23 µM
TGI (SK-MEL-28 melanoma): > 100 µM
GI50 (SK-MEL-5 melanoma): 1750 nM
TGI (SK-MEL-5 melanoma): 3.31 µM
GI50 (SK-OV-3 ovarian): 2980 nM
TGI (SK-OV-3 ovarian): 9.26 µM
GI50 (SN12C renal): 3.23 µM
TGI (SN12C renal): > 100 µM
GI50 (SNB-19 CNS): 4.02 µM
TGI (SNB-19 CNS): > 100 µM
GI50 (SR leukemia): 2690 nM
TGI (SR leukemia): > 100 µM
GI50 (SW-620 colon): 3.82 µM
TGI (SW-620 colon): > 100 µM
GI50 (T-47D breast): 3.28 µM
TGI (T-47D breast): > 100 µM
GI50 (TK-10 renal): 3.27 µM
TGI (TK-10 renal): 64.1 µM
GI50 (U251 CNS): 2920 nM
TGI (U251 CNS): 13.3 µM
GI50 (UACC-257 melanoma): 2490 nM
TGI (UACC-257 melanoma): 6.8 µM
GI50 (UACC-62 melanoma): 3.22 µM
TGI (UACC-62 melanoma): > 100 µM
GI50 (UO-31 renal): 2820 nM
TGI (UO-31 renal): > 100 µM
